{"source": "patent US20150105252A1", "about": "“SUBSTITUTED PYRAZOLES AS HERBICIDES” (E I DU PONT DE NEMOURS AND COMPANY, priority 2013, published 2015)", "key": {"oilseed rape [1]": {"system": "oilseed rape", "test": "Test C postemergence", "format": "in vivo, Brassica napus", "procedure,_shortened": "(§1)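 Herbicidal effect is expressed as percent visual control (0–100) judged against untreated plants 13 to 15 days after treatment in the greenhouse. Preemergence pots contained seeds in a soil–sand blend; postemergence plants, 2–18 cm tall, grew in peat-based planting medium.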"}, "velvetleaf [2]": {"system": "velvetleaf", "test": "Test C preemergence", "format": "in vivo, Abutilon theophrasti", "conditions": "for Velvetleaf plant response rating: preemergence", "procedure,_shortened": "as §1"}, "nutsedge, yellow": {"system": "nutsedge, yellow", "test": "Test C preemergence", "format": "in vivo, Cyperus esculentus", "conditions": "for Nutsedge, Yellow plant response rating: preemergence", "procedure,_shortened": "as §1"}, "corn": {"system": "corn", "test": "Test C postemergence", "format": "in vivo, Zea mays", "procedure,_shortened": "as §1"}, "crabgrass, large [3]": {"system": "crabgrass, large", "test": "Test A postemergence", "format": "in vivo, Digitaria sanguinalis", "procedure,_shortened": "(§2)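 Visual injury rating, 0–100 (0 no effect, 100 complete control), vs untreated controls ~10 days after treatment in greenhouse. Pre: directed soil spray on seeded loam/sand. Post: 2–10 cm plants, 1–2 leaf stage. Formulation: non-phytotoxic solvent mix + surfactant.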"}, "wheat": {"system": "wheat", "test": "Test C postemergence", "format": "in vivo, Triticum aestivum", "procedure,_shortened": "as §1"}, "oilseed rape [4]": {"system": "oilseed rape", "test": "Test C preemergence", "format": "in vivo, Brassica napus", "conditions": "for Oilseed Rape plant response rating: preemergence", "procedure,_shortened": "as §1"}, "barnyardgrass [5]": {"system": "barnyardgrass", "test": "Test A preemergence", "format": "in vivo, Echinochloa crus-galli", "conditions": "preemergence", "procedure,_shortened": "as §2"}, "barnyardgrass [6]": {"system": "barnyardgrass", "test": "Test C postemergence", "format": "in vivo, Echinochloa crus-galli", "procedure,_shortened": "as §1"}, "crabgrass, large [7]": {"system": "crabgrass, large", "test": "Test A preemergence", "format": "in vivo, Digitaria sanguinalis", "conditions": "preemergence", "procedure,_shortened": "as §2"}, "barnyardgrass [8]": {"system": "barnyardgrass", "test": "Test A postemergence", "format": "in vivo, Echinochloa crus-galli", "procedure,_shortened": "as §2"}, "velvetleaf [9]": {"system": "velvetleaf", "test": "Test C postemergence", "format": "in vivo, Abutilon theophrasti", "procedure,_shortened": "as §1"}, "pigweed": {"system": "pigweed", "test": "Test A postemergence", "format": "in vivo, Amaranthus retroflexus", "procedure,_shortened": "as §2"}, "soybean [10]": {"system": "soybean", "test": "Test C postemergence", "format": "in vivo, Glycine max", "procedure,_shortened": "as §1"}, "velvetleaf [11]": {"system": "velvetleaf", "test": "Test A preemergence", "format": "in vivo, Abutilon theophrasti", "conditions": "preemergence", "procedure,_shortened": "as §2"}, "soybean [12]": {"system": "soybean", "test": "Test C preemergence", "format": "in vivo, Glycine max", "conditions": "for Soybean plant response rating: preemergence", "procedure,_shortened": "as §1"}, "[13]": {"conditions": "Postemergence, 31 g ai/ha, visually evaluated after 13 to 15 days"}, "[14]": {"conditions": "postemergence, 62 g ai/ha, scale 0 to 100"}, "[15]": {"conditions": "postemergence, 250 g ai/ha, scale 0 to 100 (0 no effect, 100 complete control)"}, "[16]": {"conditions": "postemergence, 125 g ai/ha, scale 0 to 100, 0 no effect, 100 complete control"}, "[17]": {"conditions": "31 g ai/ha, visual rating, scale 0 to 100 (0 no effect, 100 complete control), 13 to 15 days"}, "[18]": {"conditions": "62 g ai/ha, scale 0 to 100 (0 no effect, 100 complete control), 13 to 15 days"}, "[19]": {"conditions": "125 g ai/ha, scale 0 to 100, 0 is no effect, 100 is complete control"}, "[20]": {"conditions": "Postemergence, 500 g ai/ha, visual rating after approx. 10 days, 0 to 100 scale (0 no effect, 100 complete control)"}, "[21]": {"conditions": "postemergence, 125 g ai/ha, about 10 days, visual rating on 0 to 100 scale (0 no effect, 100 complete control)"}, "[22]": {"conditions": "125 g ai/ha, visual injury, 0 to 100 scale, approx. 10 days"}, "[23]": {"conditions": "500 g ai/ha, visual injury after approx. 10 days, 0 to 100 scale (0 no effect, 100 complete control)"}}}
{"smiles": "CCCNC(=O)c1cc(CC)n(Cc2nc(C(F)(F)F)nn2C)n1", "note": "[Compound 109]", "values": [{"measurement": "Plant response rating (scale of 0 to 100 where 0 is no effect and 100 is complete control), Oilseed Rape", "setting": "oilseed rape [1]; [13]", "result": 40}, {"measurement": "Oilseed Rape plant response rating", "setting": "oilseed rape [1]; [14]", "result": 45}, {"measurement": "Plant response rating, Oilseed Rape", "setting": "oilseed rape [1]; [15]", "result": 50}, {"measurement": "Plant response rating, Oilseed Rape", "setting": "oilseed rape [1]; [16]", "result": 45}, {"measurement": "Plant response rating (scale of 0 to 100), Velvetleaf", "setting": "velvetleaf [2]; Preemergence, 250 g ai/ha", "result": 100}, {"measurement": "Velvetleaf plant response rating", "setting": "velvetleaf [2]; [17]", "result": 10}, {"measurement": "Velvetleaf plant response rating", "setting": "velvetleaf [2]; [18]", "result": 80}, {"measurement": "Velvetleaf plant response rating", "setting": "velvetleaf [2]; [19]", "result": 100}, {"measurement": "Plant response rating (scale of 0 to 100), Nutsedge, Yellow", "setting": "nutsedge, yellow; Preemergence, 250 g ai/ha", "result": 60}, {"measurement": "Nutsedge, Yellow plant response rating", "setting": "nutsedge, yellow; [17]", "result": 5}, {"measurement": "Nutsedge, Yellow plant response rating", "setting": "nutsedge, yellow; [18]", "result": 25}, {"measurement": "Nutsedge, Yellow plant response rating", "setting": "nutsedge, yellow; [19]", "result": 40}, {"measurement": "Plant response rating (scale of 0 to 100 where 0 is no effect and 100 is complete control), Corn", "setting": "corn; [13]", "result": 5}, {"measurement": "Corn plant response rating", "setting": "corn; [14]", "result": 10}, {"measurement": "Plant response rating, Corn", "setting": "corn; [15]", "result": 15}, {"measurement": "Plant response rating, Corn", "setting": "corn; [16]", "result": 15}, {"measurement": "Crabgrass, Large plant response rating", "setting": "crabgrass, large [3]; [20]", "result": 90}, {"measurement": "Crabgrass, Large plant response rating", "setting": "crabgrass, large [3]; [21]", "result": 90}, {"measurement": "Plant response rating (scale of 0 to 100 where 0 is no effect and 100 is complete control), Wheat", "setting": "wheat; [13]", "result": 0}, {"measurement": "Wheat plant response rating", "setting": "wheat; [14]", "result": 0}, {"measurement": "Plant response rating, Wheat", "setting": "wheat; [15]", "result": 0}, {"measurement": "Plant response rating, Wheat", "setting": "wheat; [16]", "result": 0}, {"measurement": "Plant response rating (scale of 0 to 100), Oilseed Rape", "setting": "oilseed rape [4]; Preemergence, 250 g ai/ha", "result": 100}, {"measurement": "Oilseed Rape plant response rating", "setting": "oilseed rape [4]; [17]", "result": 40}, {"measurement": "Oilseed Rape plant response rating", "setting": "oilseed rape [4]; [18]", "result": 100}, {"measurement": "Oilseed Rape plant response rating", "setting": "oilseed rape [4]; [19]", "result": 100}, {"measurement": "Barnyardgrass plant response rating", "setting": "barnyardgrass [5]; [22]", "result": 100}, {"measurement": "Barnyardgrass plant response rating", "setting": "barnyardgrass [5]; [23]", "result": 100}, {"measurement": "Plant response rating (scale of 0 to 100 where 0 is no effect and 100 is complete control), Barnyardgrass", "setting": "barnyardgrass [6]; [13]", "result": 5}, {"measurement": "Barnyardgrass plant response rating", "setting": "barnyardgrass [6]; [14]", "result": 5}, {"measurement": "Plant response rating, Barnyardgrass", "setting": "barnyardgrass [6]; [15]", "result": 20}, {"measurement": "Plant response rating, Barnyardgrass", "setting": "barnyardgrass [6]; [16]", "result": 10}, {"measurement": "Crabgrass, Large plant response rating", "setting": "crabgrass, large [7]; [22]", "result": 100}, {"measurement": "Crabgrass, Large plant response rating", "setting": "crabgrass, large [7]; [23]", "result": 100}, {"measurement": "Barnyardgrass plant response rating", "setting": "barnyardgrass [8]; [20]", "result": 90}, {"measurement": "Barnyardgrass plant response rating", "setting": "barnyardgrass [8]; [21]", "result": 90}, {"measurement": "Plant response rating (scale of 0 to 100 where 0 is no effect and 100 is complete control), Velvetleaf", "setting": "velvetleaf [9]; [13]", "result": 10}, {"measurement": "Velvetleaf plant response rating", "setting": "velvetleaf [9]; [14]", "result": 15}, {"measurement": "Plant response rating, Velvetleaf", "setting": "velvetleaf [9]; [15]", "result": 35}, {"measurement": "Plant response rating, Velvetleaf", "setting": "velvetleaf [9]; [16]", "result": 25}, {"measurement": "Pigweed plant response rating", "setting": "pigweed; [20]", "result": 90}, {"measurement": "Pigweed plant response rating", "setting": "pigweed; [21]", "result": 90}, {"measurement": "Plant response rating (scale of 0 to 100 where 0 is no effect and 100 is complete control), Soybean", "setting": "soybean [10]; [13]", "result": 55}, {"measurement": "Soybean plant response rating", "setting": "soybean [10]; [14]", "result": 60}, {"measurement": "Plant response rating, Soybean", "setting": "soybean [10]; [15]", "result": 75}, {"measurement": "Plant response rating, Soybean", "setting": "soybean [10]; [16]", "result": 75}, {"measurement": "Velvetleaf plant response rating", "setting": "velvetleaf [11]; [22]", "result": 70}, {"measurement": "Velvetleaf plant response rating", "setting": "velvetleaf [11]; [23]", "result": 100}, {"measurement": "Plant response rating (scale of 0 to 100), Soybean", "setting": "soybean [12]; Preemergence, 250 g ai/ha", "result": 98}, {"measurement": "Soybean plant response rating", "setting": "soybean [12]; [17]", "result": 70}, {"measurement": "Soybean plant response rating", "setting": "soybean [12]; [18]", "result": 95}, {"measurement": "Soybean plant response rating", "setting": "soybean [12]; [19]", "result": 98}]}
